What was measured:
Assay type in all cases: cell-based, Hepatitis C virus (HCV)
BK-2b N24S/L392I = experiment: β-lactamase reporter replicon assay, BK-2b N24S/L392I chimeric replicon; settings: BK-2b N24S/L392I replicon
Protocol: (§1) Selection of persistently replication cells lines expressing β-lactamase, using bla:2b chimeric replicons each harboring a different mutation (N24S, M31I, I392L) defined in the Neo^r selection studies described above, was performed in the enhanced replication Huh7 derived cell line MR2. (Murray et al., J. of Virology, 77:2928-2935, 2003.) To generate RNA for transfection, plasmids were linearized by digestion of an XbaI site distal to the replicon sequences. RNA was generated using MEGAscript™ (Ambion, Austin, Tex.) and quantitated by UV absorbance. […]
(§2) The next morning cells were expanded into two T75 flasks and grown for an additional three days. A duplicate well for each replicon construct was analyzed for β-lactamase activity to verify that the transfection efficiency was >90%.
(§3) On day 4 cells from one flask were collected, counted, and seeded into a 96 well Cytostar plate at a density of 7,500 cells/well in the presence of 1 μM clavulonic acid. […] Simultaneously, the other flasks were analyzed for β-lactamase activity to verify both that activity from a non-replicating control sub-genomic replicon was undetectable, and establish the day 4 replication activity of the test replicons. […] Cells with drug were incubated for two days, and analyzed as described in Example 4. […]

Con1-2bM31I = experiment: β-lactamase reporter replicon assay, Con1-2bM31I chimeric replicon; settings: Con1-2bM31I replicon in MR2 (Huh7 derived) cells, two days with drug, percent of DMSO control, 4 parameter fit
Protocol: (§4) Selection of persistently replication cells lines expressing β-lactamase, using bla:2b chimeric replicons each harboring a different mutation (N24S, M31I, I392L) defined in the Neo^r selection studies described above, was performed in the enhanced replication Huh7 derived cell line MR2. (Murray et al., J. of Virology, 77:2928-2935, 2003.) To generate RNA for transfection, plasmids were linearized by digestion of an XbaI site distal to the replicon sequences. RNA was generated using MEGAscript™ (Ambion, Austin, Tex.) and quantitated by UV absorbance.
(§5) MR2 was maintained in Dulbecco's modified Eagle's medium (DMEM) supplemented with 10% fetal bovine serum, nonessential amino acids, 2 mM GlutaMAX, and Penn/Strep (Invitrogen Corp., Carlsbad, Calif.). Cells were seeded the night prior to transfection at a density of 300,000 cells per well in a 6-well dish. A mixture of 5 μg RNA, 12 μl of DMRE-C (Invitrogen Corp., Carlsbad, Calif.), and 2 ml of Opti-Mem (Invitrogen Corp., Carlsbad, Calif.) media was prepared and allowed to sit for 10 minutes. During this time media was removed from the MR2 cells, cells were washed once with Opti-Mem, then the RNA:DMRE-C mixture was added dropwise, and incubated for ˜8 hours. Transfection media was removed by aspiration, and replaced with 2 ml DMEM.

BK NS5a268S-2bN24S = experiment: β-lactamase reporter replicon assay, BK NS5a268S-2bN24S chimeric replicon; settings: BK NS5a268S-2bN24S replicon
Protocol: as §1, §2, §3

BK-2bM31I = experiment: β-lactamase reporter replicon assay, BK-2bM31I chimeric replicon; settings: BK-2bM31I replicon in MR2 (Huh7 derived) cells, two days with drug, percent of DMSO control, 4 parameter fit
Protocol: as §4, §5

[1] = system: bk:2B bla chimeric replicon bearing change at residue 24; experiment: β-lactamase reporter replicon assay, bk:2B bla chimeric replicon with change at residue 24; settings: at the EC95 for 2′C-methyladenosine; replicon not robust enough for IC50 determination
Protocol: as §4
(§6) On day 4 cells from one flask were collected, counted, and seeded into a 96 well Cytostar plate at a density of 7,500 cells/well in the presence of 1 μM clavulonic acid. […] Simultaneously, the other flasks were analyzed for β-lactamase activity to verify both that activity from a non-replicating control sub-genomic replicon was undetectable, and establish the day 4 replication activity of the test replicons. […] Cells with drug were incubated for two days, and analyzed as described in Example 4.
(§7) Medium was removed by aspiration and cells were stained for 2 hours with CCF4-AM (Invitrogen Corp., Carlsbad, Calif.) in DMEM supplemented with 25 mM HEPES, pH 8.0. Fluorescence due to β-lactamase activity was measured through excitation at 405 nm, followed by measurement of the emission at 460 nm using a CytoFluor 4000 fluorescence plate reader. […]

[2] = system: bk:2B bla chimeric replicon bearing change at residue 392; experiment: β-lactamase reporter replicon assay, bk:2B bla chimeric replicon with change at residue 392; settings: at the EC95 for 2′C-methyladenosine; replicon not robust enough for IC50 determination
Protocol: as §4, §6, §7

C[C@@]1(O)[C@H](O)[C@@H](CO)O[C@H]1n1cnc2c(N)ncnc21 [2′C-methyladenosine]
EC50 (BK-2b N24S/L392I): 185 nM | EC50 (Con1-2bM31I): 407 nM | EC50 (BK NS5a268S-2bN24S): 982 nM | EC50 (BK-2bM31I): 667 nM | inhibition of limited replication [1]: could be inhibited | inhibition of limited replication [2]: could be inhibited

Reference: US8354518B2, “HCV replicons containing NS5B from genotype 2B” (Merck Sharp & Dohme Corp., priority 2003, dated 2013)
